Results as given in article PMC8048981, “Cys–Cys and Cys–Lys Stapling of Unprotected Peptides Enabled by Hypervalent Iodine Reagents” (Angewandte Chemie (International Ed. in English), 2021).
Read-outs that look alike come from different tables or passages of the source.

Experiments:
[1] = Two-component Cys-Cys stapling with bis-hypervalent iodine reagents 8c-8e (3.0 equiv), DIPEA (2.5 equiv), overnight, preparative RP-HPLC; conditions: the molecule shown is the open-chain precursor, DMF, 2.0 mM, 37.0 °C
[2] = the molecule shown is the open-chain precursor, scale: % relative absorbance at 210 nm vs linear peptide standard
[3] = Two-component Cys-Lys stapling: Cys S-alkynylation by EBX-pentafluorophenyl ester reagents 9a-9d (1.1 equiv), then intramolecular Lys aminolysis of the PFP ester; DIPEA (2.5 equiv); conditions: the molecule shown is the open-chain precursor, DMF, 1.0 mM, 37.0 °C, scale: % relative absorbance at 210 nm vs linear peptide standard
[4] = Two-component Cys-Lys stapling with EBX-PFP ester reagents 9a/9b (1.1 equiv), DIPEA (2.5 equiv), preparative RP-HPLC; conditions: the molecule shown is the open-chain precursor, DMF, 1.0 mM, 37.0 °C
[5] = 22-membered ring, DMF, 1.0 mM, 37.0 °C, 4.0 h
[6] = 33-membered ring, DMF, 1.0 mM, 37.0 °C, 4.0 h
[7] = 24-membered ring, DMF, 1.0 mM, 37.0 °C, 4.0 h

## Ac-YGGEAAREAC(S-C≡C-Si(iPr)2-O-Si(iPr)2-C≡C-I[bis-CF3 benziodoxole])ARECAARE-NH2
[1]; 24-membered ring
  ring closure, isolated yield (% isolated yield): 19
[2]; 24-membered ring
  ring closure, conversion by HPLC: 9

## CSCC[C@H](NC(=O)[C@H](CC(N)=O)NC(=O)[C@H](Cc1ccc(O)cc1)NC(=O)[C@H](CCCCN)NC(=O)[C@H](CCC(=O)O)NC(=O)[C@H](Cc1c[nH]cn1)NC(=O)[C@H](Cc1c[nH]c2ccccc12)NC(=O)[C@H](CSC#Cc1cccc(C(=O)Oc2c(F)c(F)c(F)c(F)c2F)c1)NC(=O)[C@H](CCCNC(=N)N)NC(=O)[C@H](CCC(=O)O)NC(=O)[C@@H](N)CO)C(N)=O [H-SERC(S-C≡C-C6H4-3-CO-OPfp)WHEKYNM-NH2]
[3]; 26-membered ring, 0.5 h
  ring closure, conversion by HPLC: 20

## Ac-QSQQTFC(S-C≡C-C6H4-3-CO-OPfp)NLWRLLKQN-NH2
[4]; 35-membered ring
  ring closure, isolated yield (% isolated yield): 55
[3]; 35-membered ring, 0.5 h
  ring closure, conversion by HPLC: 110

## Ac-YGGEAARKAC(S-C≡C-C6H4-3-CO-OPfp)AREKAARE-NH2
[3]; 26-membered ring, 0.5 h
  ring closure, conversion by HPLC: 74

## Ac-YGGEAAREAC(S-C≡C-C6H3-3,5-(CO-OPfp)2)AREKAARE-NH2
[3]; 26-membered ring, 0.25 h
  ring closure, conversion by HPLC: 70

## Ac-ENPEC(S-C≡C-C6H4-3-CO-OPfp)ILDKHVQRVM-NH2
[4]; 26-membered ring
  ring closure, isolated yield (% isolated yield): 7
[3]; 26-membered ring, 0.5 h
  ring closure, conversion by HPLC: 34

## Ac-YGGEAAREAC(S-C≡C-C6H4-4-CO-OPfp)AREKAAREK-NH2
[3]; 27-membered ring, 0.5 h
  ring closure, conversion by HPLC: 95

## 5(6)-FAM-QSQQTFC(S-C≡C-C6H4-4-CO-OPfp)NLWRLLKQN-NH2
[4]; 36-membered ring
  ring closure, isolated yield (% isolated yield): 76

## Ac-ENPEC(S-C≡C-Si(iPr)2-C≡C-I[bis-CF3 benziodoxole])ILDCHVQRVM-NH2
[1]; 22-membered ring
  ring closure, isolated yield (% isolated yield): 46
[2]; [5]
  ring closure, conversion by HPLC: 98

## C[C@H](NC(=O)[C@H](CC(=O)O)NC(=O)[C@H](Cc1c[nH]cn1)NC(=O)[C@H](CCCCN)NC(=O)[C@H](Cc1ccc(O)cc1)NC(=O)[C@H](Cc1ccccc1)NC(=O)[C@H](CCC(N)=O)NC(=O)[C@H](CO)NC(=O)[C@@H](N)CCCNC(=N)N)C(=O)NCC(=O)N[C@@H](CSC#Cc1cccc(C(=O)Oc2c(F)c(F)c(F)c(F)c2F)c1)C(=O)NCC(N)=O [H-RSQFYKHDAGC(S-C≡C-C6H4-3-CO-OPfp)G-NH2]
[3]; 29-membered ring, 0.5 h
  ring closure, conversion by HPLC: 22

## Ac-YGGEAAREAC(S-C≡C-C6H4-2-CO-OPfp)AREKAARE-NH2
[3]; 25-membered ring, 0.5 h
  ring closure, conversion by HPLC: 118

## Ac-QSQQTFC(S-C≡C-C6H4-4-CO-OPfp)NLWRLLKQN-NH2
[4]; 36-membered ring
  ring closure, isolated yield (% isolated yield): 87
[3]; 36-membered ring, 0.5 h
  ring closure, conversion by HPLC: 117

## Ac-QSQQTFC(S-C≡C-C6H4-3-C≡C-I[bis-CF3 benziodoxole])NLWRLLCQN-NH2
[2]; [6]
  ring closure, conversion by HPLC: 13

## Ac-QSQQTFC(S-C≡C-C6H4-4-C≡C-I[bis-CF3 benziodoxole])NLWRLLCQN-NH2
[2]; 34-membered ring, DMF, 1.0 mM, 37.0 °C, 4.0 h
  ring closure, conversion by HPLC: 46

## Ac-YGGEAAREAC(S-C≡C-C6H4-4-CO-OPfp)AREKAARE-NH2
[4]; 27-membered ring
  ring closure, isolated yield (% isolated yield): 65
[3]; 27-membered ring, 0.5 h
  ring closure, conversion by HPLC: 114

## Ac-ENPEC(S-C≡C-Si(cHex)2-C≡C-I[bis-CF3 benziodoxole])ILDCHVQRVM-NH2
[2]; [5]
  ring closure, conversion by HPLC: 89

## Ac-YGGEKAREAC(S-C≡C-C6H4-4-CO-OPfp)AREKAARE-NH2
[3]; 27-membered ring, 0.5 h
  ring closure, conversion by HPLC: 91

## Ac-QSQQTFC(S-C≡C-Si(cHex)2-C≡C-I[bis-CF3 benziodoxole])NLWRLLCQN-NH2
[1]; 31-membered ring
  ring closure, isolated yield (% isolated yield): 22

## Ac-YGGEAARKAC(S-C≡C-C6H4-4-CO-OPfp)AREKAARE-NH2
[3]; 27-membered ring, 0.5 h
  ring closure, conversion by HPLC: 92

## Ac-QSQQTFC(S-C≡C-Si(iPr)2-C≡C-I[bis-CF3 benziodoxole])NLWRLLCQN-NH2
[1]; 31-membered ring
  ring closure, isolated yield (% isolated yield): 13
[2]; 31-membered ring, DMF, 1.0 mM, 37.0 °C, 4.0 h
  ring closure, conversion by HPLC: 30

## Ac-QSQQTFC(S-C≡C-Si(iPr)2-O-Si(iPr)2-C≡C-I[bis-CF3 benziodoxole])NLWRLLCQN-NH2
[1]; 33-membered ring
  ring closure, isolated yield (% isolated yield): 17
[2]; [6]
  ring closure, conversion by HPLC: 30

## Ac-YGGEAARK(ivDde)AC(S-C≡C-C6H4-3-CO-OPfp)AREKAARE-NH2
[3]; 26-membered ring, 0.5 h
  ring closure, conversion by HPLC: 72

## Ac-ENPEC(S-C≡C-C6H4-3-C≡C-I[bis-CF3 benziodoxole])ILDCHVQRVM-NH2
[2]; [7]
  ring closure, conversion by HPLC: 13

## CSCC[C@H](NC(=O)[C@H](CC(N)=O)NC(=O)[C@H](CCCCN)NC(=O)[C@H](Cc1ccc(O)cc1)NC(=O)[C@H](CS)NC(=O)[C@H](CCC(=O)O)NC(=O)[C@H](Cc1c[nH]cn1)NC(=O)[C@H](Cc1c[nH]c2ccccc12)NC(=O)[C@H](CSC#C[Si](C#CI1OC(C(F)(F)F)(C(F)(F)F)c2ccccc21)(C(C)C)C(C)C)NC(=O)[C@H](CCCNC(=N)N)NC(=O)[C@H](CCC(=O)O)NC(=O)[C@@H](N)CO)C(N)=O
[2]; [5]
  ring closure, conversion by HPLC: 79

## CSCC[C@H](NC(=O)[C@H](CC(N)=O)NC(=O)[C@H](CCCCN)NC(=O)[C@H](Cc1ccc(O)cc1)NC(=O)[C@H](CS)NC(=O)[C@H](CCC(=O)O)NC(=O)[C@H](Cc1c[nH]cn1)NC(=O)[C@H](Cc1c[nH]c2ccccc12)NC(=O)[C@H](CSC#C[Si](O[Si](C#CI1OC(C(F)(F)F)(C(F)(F)F)c2ccccc21)(C(C)C)C(C)C)(C(C)C)C(C)C)NC(=O)[C@H](CCCNC(=N)N)NC(=O)[C@H](CCC(=O)O)NC(=O)[C@@H](N)CO)C(N)=O
[2]; [7]
  ring closure, conversion by HPLC: 15

## Ac-YGGEAARK(ivDde)AC(S-C≡C-C6H4-4-CO-OPfp)AREKAARE-NH2
[3]; 27-membered ring, 0.5 h
  ring closure, conversion by HPLC: 117

## C[C@H](NC(=O)[C@H](CC(=O)O)NC(=O)[C@H](Cc1c[nH]cn1)NC(=O)[C@H](CCCCN)NC(=O)[C@H](Cc1ccc(O)cc1)NC(=O)[C@H](Cc1ccccc1)NC(=O)[C@H](CCC(N)=O)NC(=O)[C@H](CO)NC(=O)[C@@H](N)CCCNC(=N)N)C(=O)NCC(=O)N[C@@H](CSC#Cc1ccc(C(=O)Oc2c(F)c(F)c(F)c(F)c2F)cc1)C(=O)NCC(N)=O [H-RSQFYKHDAGC(S-C≡C-C6H4-4-CO-OPfp)G-NH2]
[3]; 30-membered ring, 0.5 h
  ring closure, conversion by HPLC: 54
[3]; 41-membered ring, 0.5 h
  ring closure, conversion by HPLC: 18

## Ac-YGGEAAREAC(S-C≡C-Si(cHex)2-C≡C-I[bis-CF3 benziodoxole])ARECAARE-NH2
[2]; 22-membered ring
  ring closure, conversion by HPLC: 69

## Ac-ENPEC(S-C≡C-C6H4-4-CO-OPfp)ILDKHVQRVM-NH2
[4]; 27-membered ring
  ring closure, isolated yield (% isolated yield): 52
[3]; 27-membered ring, 0.5 h
  ring closure, conversion by HPLC: 62

## Ac-ENPEC(S-C≡C-C6H4-4-C≡C-I[bis-CF3 benziodoxole])ILDCHVQRVM-NH2
[2]; 25-membered ring
  ring closure, conversion by HPLC: 27

## CSCC[C@H](NC(=O)[C@H](CC(N)=O)NC(=O)[C@H](Cc1ccc(O)cc1)NC(=O)[C@H](CCCCN)NC(=O)[C@H](CCC(=O)O)NC(=O)[C@H](Cc1c[nH]cn1)NC(=O)[C@H](Cc1c[nH]c2ccccc12)NC(=O)[C@H](CSC#Cc1ccc(C(=O)Oc2c(F)c(F)c(F)c(F)c2F)cc1)NC(=O)[C@H](CCCNC(=N)N)NC(=O)[C@H](CCC(=O)O)NC(=O)[C@@H](N)CO)C(N)=O [H-SERC(S-C≡C-C6H4-4-CO-OPfp)WHEKYNM-NH2]
[3]; 27-membered ring, 0.5 h
  ring closure, conversion by HPLC: 63

## Ac-ENPEC(S-C≡C-Si(iPr)2-O-Si(iPr)2-C≡C-I[bis-CF3 benziodoxole])ILDCHVQRVM-NH2
[1]; 24-membered ring
  ring closure, isolated yield (% isolated yield): 29
[2]; [7]
  ring closure, conversion by HPLC: 51

## Ac-ENPEC(S-C≡C-C6H4-2-CO-OPfp)ILDKHVQRVM-NH2
[3]; 25-membered ring, 0.5 h
  ring closure, conversion by HPLC: 101

## Ac-YGGEAAREAC(S-C≡C-C6H4-3-CO-OPfp)AREKAARE-NH2
[4]; 26-membered ring
  ring closure, isolated yield (% isolated yield): 44
[3]; 26-membered ring, 0.5 h
  ring closure, conversion by HPLC: 77

## Ac-QSQQTFC(S-C≡C-C6H4-2-CO-OPfp)NLWRLLKQN-NH2
[3]; 34-membered ring, 0.5 h
  ring closure, conversion by HPLC: 123

## Ac-YGGEAAREAC(S-C≡C-Si(iPr)2-C≡C-I[bis-CF3 benziodoxole])ARECAARE-NH2
[1]; 22-membered ring
  ring closure, isolated yield (% isolated yield): 48
[2]; 22-membered ring
  ring closure, conversion by HPLC: 72
